# Patent EP1388586A2, “Identification of broadly reactive DR restricted epitopes” (priority 1998, dated 1999)
# Where two headings read alike, the source gives them in different places. Square brackets hold non-standard residues; d marks the D form. Ends that are not written are not given here. Peptide text beside a SMILES is read from it.
# Tests used:
# DRB1*1101 (DR5w11) = biological target: T1, DRB1*1101 (DR5w11) (Homo sapiens, UniProt P01903+P01911, A100R/A169T/A87E/I96F/K41T/L162R/M171V/P40S/Q125H/Q178H/Q39Y/Q99D/R42S/S66Y/T262R/V115G/W38E); test: Class II peptide-binding assay, DR5w11;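 note: competition by unlabeled test peptide against iodinated probe peptide binding to affinity-purified HLA-DR, class II amount titrated beforehand, half-maximal inhibitory concentration read as approximate Kd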
# T1 construct: used as sources of human HLA class II molecules; endogenous in cells; host or cells: SWEIG (EBV-transformed homozygous B cell line)
# T1 sequence (P01903 26-254, other chains not shown): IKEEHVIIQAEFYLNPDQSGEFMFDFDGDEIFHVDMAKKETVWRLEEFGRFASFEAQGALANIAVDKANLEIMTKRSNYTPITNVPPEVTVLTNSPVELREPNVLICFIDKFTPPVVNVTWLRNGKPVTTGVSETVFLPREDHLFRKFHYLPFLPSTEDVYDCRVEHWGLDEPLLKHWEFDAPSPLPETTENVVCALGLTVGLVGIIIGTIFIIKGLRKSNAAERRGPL
# Description: Class II peptide-binding assays. […] These assays were chosen as to be representative of the most common DR alleles.
# Radiolabeled peptides were iodinated using the chloramine-T method. […] In appropriate stoichiometric conditions, the IC50 of an unlabeled test peptide to the purified DR is a reasonable approximation of the affinity of interaction (Kd). Peptides were tested in two to four completely independent experiments. […] Final detergent concentration in the incubation mixture was 0.05% Nonidet P-40. Assays were performed at pH 7.0 with the exception of DR3, which was performed at pH 4.5, and DRw53, which was performed at pH 5.0.
# All subsequent inhibition and direct binding assays were the performed using these class II concentrations.
# DRB1*0401 (DR4w4) = biological target: T2, DRB1*0401 (DR4w4) (Homo sapiens, UniProt P01903+P01911, A100K/A169T/F76Y/I96L/K127E/L162R/M171V/N62H/P40V/Q125Y/R42H/S133A/S149N/S66Y/V115G/V209L/W38E); test: Class II peptide-binding assay, DR4w4;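 note: unlabeled test peptides compete with a radiolabeled probe peptide for binding to affinity-purified HLA-DR, with DR amount titrated to capture a small fraction of label, IC50 approximating Kd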
# T2 construct: used as sources of human HLA class II molecules; endogenous in cells; host or cells: PREISS (EBV-transformed homozygous B cell line)
# DRB1*0701 (DR7) = DRB1*0701 (DR7) (Homo sapiens, UniProt P01903+P01911, A100R/A102G/A103Q/D57E/D86V/E43K/F76Y/K127E/L162R/M171V/P40G/Q125H/Q99D/R33Q/R42Y/R54Q/S133A/S66F/T210M/V115G/Y107V/Y59L/Y89S); test: Class II peptide-binding assay, DR7;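 note: unlabeled peptides compete with an iodinated probe peptide for binding to affinity-purified HLA-DR at neutral pH, DR amount titered to bind a small tracer fraction, IC50 approximating Kd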
# DRB1*0101 (DR1) = biological target: T3, DRB1*0101 (DR1) (Homo sapiens, UniProt P01903+P01911, A100R/D57E/F55L/F60I/F76Y/I96L/L162R/M171V/P40L/Q125E/R42F/V115G/Y59C); test: Class II peptide-binding assay, DR1;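 note: competition assay: unlabeled test peptides inhibit binding of a radiolabeled probe peptide to purified DR, with half-maximal inhibition taken as an approximate dissociation constant Kd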
# T3 construct: used as sources of human HLA class II molecules; endogenous in cells; host or cells: LG2 (EBV-transformed homozygous B cell line)
# DRB5*0101 (DR2w2a) = biological target: T4, DRB5*0101 (DR2w2a) (Homo sapiens, UniProt P01903+Q30154); test: Class II peptide-binding assay, DR2w2a (DR2w2B2);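 note: competitive binding assay: unlabeled peptide inhibiting binding of a radiolabeled probe peptide to purified DR molecules at pH 7.0, IC50 approximating Kd, lower means stronger binding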
# T4 construct: used as sources of human HLA class II molecules; endogenous in cells; host or cells: GM3107 (EBV-transformed homozygous B cell line)
# DRB10404 (DR4w14) = biological target: T5, DRB10404 (DR4w14) (Homo sapiens, UniProt P01903+P01911, A100R/A169T/F76Y/I96L/K127E/L162R/M171V/N62H/P40V/Q125Y/R42H/S133A/S149N/S66Y/V209L/W38E); test: Class II peptide-binding assay, DR4w14;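 note: unlabeled peptides compete with a radiolabeled probe for binding to affinity-purified HLA-DR, neutral pH, class II amount titrated to bind a small fraction of label, IC50 approximates Kd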
# T5 construct: used as sources of human HLA class II molecules; endogenous in cells; host or cells: BIN40 (EBV-transformed homozygous B cell line)
# [1] = read-out: DR1 nM (In IC50 Format), purified HLA DR1
# [2] = read-out: DR5w11 nM (In IC50 Format), purified HLA DR5w11
# [3] = read-out: DR7 nM (In IC50 Format), purified HLA DR7
# [4] = read-out: DR2w2B2 nM (In IC50 Format), purified HLA DR2w2β2
# [5] = read-out: DR4w4 nM (In IC50 Format), purified HLA DR4w4
# [6] = read-out: DR4w14 nM (In IC50 Format), purified HLA DR4w14
# [7] = read-out: DR1 nM, Table VIII, In IC50 Format
# [8] = read-out: DR5w11 nM, Table VIII, In IC50 Format
# [9] = read-out: DR2w2B2 nM, Table VIII, In IC50 Format
# [10] = read-out: DR4w14 nM, Table VIII, In IC50 Format
# [11] = read-out: DR4w4 nM, Table VIII, In IC50 Format
Compound,IC50 (DRB1*0101 (DR1); [1]) [nM],IC50 (DRB1*1101 (DR5w11); [2]) [nM],IC50 (DRB1*0701 (DR7); [3]) [nM],IC50 (DRB5*0101 (DR2w2a); [4]) [nM],IC50 (DRB1*0401 (DR4w4); [5]) [nM],IC50 (DRB10404 (DR4w14); [6]) [nM],other results
CC[C@H](C)[C@H](NC(=O)[C@H](CCSC)NC(=O)[C@H](Cc1c[nH]c2ccccc12)NC(=O)[C@H](CS)NC(=O)[C@H](CCCCN)NC(=O)[C@@H](NC(=O)[C@H](CCSC)NC(=O)[C@@H](NC(=O)[C@H](CCSC)NC(=O)[C@H](Cc1ccc(O)cc1)NC(=O)[C@@H](NC(=O)[C@@H](N)CC(=O)O)C(C)C)[C@@H](C)CC)C(C)C)C(=O)N[C@@H](CC(=O)O)C(=O)N[C@@H](CO)C(=O)N[C@@H](CCC(=O)O)C(=O)O [Peptide 39.0277],,,,,,,"IC50 (DRB1*1101 (DR5w11); Table VIII, page 2, read-out: In IC50 Format DR5w11 nM): 909 nM; IC50 (DRB1*0401 (DR4w4); Table VIII, page 2, read-out: In IC50 Format DR4w4 nM): 790 nM"
CC[C@H](C)[C@H](NC(=O)[C@@H](NC(=O)[C@H](CC(C)C)NC(=O)[C@@H](NC(=O)[C@@H]1CCCN1C(=O)[C@H](CCCNC(=N)N)NC(=O)[C@@H](N)CCCNC(=N)N)[C@@H](C)CC)[C@@H](C)O)C(=O)N[C@H](C(=O)N[C@H](C(=O)N[C@@H](CC(C)C)C(=O)N[C@@H](CCC(=O)O)C(=O)N[C@@H](CC(=O)O)C(=O)N[C@@H](CO)C(=O)N[C@@H](CO)C(=O)NCC(=O)O)[C@@H](C)O)[C@@H](C)CC [Peptide 39.0310],,,,,,,"IC50 (DRB1*0701 (DR7); read-out: In IC50 Format DR7 nM, Table VIII, page 2): 10900 nM"
C[C@H](NC(=O)[C@H](C)NC(=O)[C@H](C)NC(=O)[C@H](C)NC(=O)[C@H](Cc1ccc(O)cc1)NC(=O)[C@H](C)NC(=O)[C@@H](C)N)C(=O)N[C@@H](C)C(=O)N[C@@H](C)C(=O)N[C@@H](CCCCN)C(=O)N[C@@H](C)C(=O)N[C@@H](C)C(=O)N[C@H](C)C(N)=O [Peptide 762.01] (H-[dA]AYAAAAAAKAA[dA]-NH2),1.7,46.8,1670,27.4,7.1,,
CC(C)C[C@H](NC(=O)[C@@H](NC(=O)[C@@H](NC(=O)[C@H](CCC(N)=O)NC(=O)[C@H](CCCNC(=N)N)NC(=O)[C@H](CCC(N)=O)NC(=O)[C@@H](N)Cc1ccccc1)[C@@H](C)O)[C@@H](C)O)C(=O)N[C@@H](CCCCN)C(=O)N[C@@H](C)C(=O)N[C@@H](C)C(=O)N[C@H](C)C(N)=O [Peptide 781.06] (H-FQRQTTLKAA[dA]-NH2),19.2,,,,2.4,13.9,
CC(C)C[C@H](NC(=O)[C@@H](NC(=O)[C@@H](NC(=O)[C@H](CCC(N)=O)NC(=O)[C@H](CCCNC(=N)N)NC(=O)[C@H](CCC(N)=O)NC(=O)[C@H](Cc1ccccc1)NC(=O)[C@H](CCCNC(=N)N)NC(=O)[C@H](C)NC(=O)[C@H](N)Cc1ccc(O)cc1)[C@@H](C)O)[C@@H](C)O)C(=O)N[C@@H](CCCCN)C(=O)N[C@@H](C)C(=O)N[C@@H](C)C(=O)N[C@H](C)C(N)=O [Peptide 781.09] (H-[dY]ARFQRQTTLKAA[dA]-NH2),2.8,7.4,,37.7,2,7.4,
CC(C)C[C@H](NC(=O)[C@@H](NC(=O)[C@@H](NC(=O)[C@H](CCC(N)=O)NC(=O)[C@H](CCCCN)NC(=O)[C@H](CC(=O)O)NC(=O)[C@H](Cc1ccccc1)NC(=O)[C@@H](CCCNC(=N)N)NC(=O)[C@H](C)NC(=O)[C@H](N)Cc1ccc(O)cc1)[C@@H](C)O)[C@@H](C)O)C(=O)N[C@@H](CCCCN)C(=O)N[C@@H](C)C(=O)N[C@@H](C)C(=O)N[C@H](C)C(=O)O [Peptide 781.19] (H-[dY]A[dR]FDKQTTLKAA[dA]-OH),60.2,47.5,,3330,8.1,96.6,
CC(C)C[C@H](NC(=O)[C@@H](NC(=O)[C@@H](NC(=O)[C@H](CCC(N)=O)NC(=O)[C@H](CO)NC(=O)[C@H](CCC(N)=O)NC(=O)[C@H](Cc1ccccc1)NC(=O)[C@H](CCCCN)NC(=O)[C@H](C)NC(=O)[C@H](N)Cc1ccc(O)cc1)[C@@H](C)O)[C@@H](C)O)C(=O)N[C@@H](CCCCN)C(=O)N[C@@H](C)C(=O)N[C@@H](CCCCN)C(=O)N[C@@H](C(N)=O)[C@H](C)O [Peptide 858.02] (H-[dY]AKFQSQTTLKAK[dT]-NH2),,,,,,,IC50 (DRB1*0101 (DR1); [7]): 9 nM; IC50 (DRB1*1101 (DR5w11); [8]): 16.3 nM; IC50 (DRB5*0101 (DR2w2a); [9]): 32.4 nM; IC50 (DRB10404 (DR4w14); [10]): 17.9 nM; IC50 (DRB1*0401 (DR4w4); [11]): 6.4 nM
CC(C)C[C@H](NC(=O)[C@@H](NC(=O)[C@@H](NC(=O)[C@H](CCC(N)=O)NC(=O)[C@H](CO)NC(=O)[C@H](CCC(N)=O)NC(=O)[C@H](Cc1ccccc1)NC(=O)[C@H](C)NC(=O)[C@H](C)NC(=O)[C@H](N)Cc1ccc(O)cc1)[C@@H](C)O)[C@@H](C)O)C(=O)N[C@@H](CCCCN)C(=O)N[C@@H](C)C(=O)N[C@@H](CCCCN)C(=O)N[C@@H](C(N)=O)[C@H](C)O [Peptide 858.04] (H-[dY]AAFQSQTTLKAK[dT]-NH2),,,,,,,"IC50 (DRB1*1101 (DR5w11); [8]): 19.6 nM; IC50 (DRB1*0701 (DR7); read-out: DR7 nM, Table VIII, In IC50 Format): 25000 nM; IC50 (DRB5*0101 (DR2w2a); [9]): 141 nM; IC50 (DRB10404 (DR4w14); [10]): 15.6 nM; IC50 (DRB1*0401 (DR4w4); [11]): 4.5 nM"
CC(C)C[C@H](NC(=O)[C@@H](NC(=O)[C@@H](NC(=O)[C@H](CCC(N)=O)NC(=O)[C@H](CO)NC(=O)[C@H](CCC(N)=O)NC(=O)[C@H](Cc1ccccc1)NC(=O)[C@H](CCCNC(=N)N)NC(=O)[C@H](C)NC(=O)[C@H](N)Cc1ccc(O)cc1)[C@@H](C)O)[C@@H](C)O)C(=O)N[C@@H](CCCCN)C(=O)N[C@@H](C)C(=O)N[C@@H](CCCCN)C(=O)N[C@@H](C(N)=O)[C@H](C)O [Peptide 858.06] (H-[dY]ARFQSQTTLKAK[dT]-NH2),,,,,,,IC50 (DRB1*0101 (DR1); [7]): 4.5 nM; IC50 (DRB1*1101 (DR5w11); [8]): 18.2 nM; IC50 (DRB5*0101 (DR2w2a); [9]): 64 nM; IC50 (DRB1*0401 (DR4w4); [11]): 5 nM
ASQKRPSQRSKYLATAST [Peptide 765.011],313,4440,961,2500,321,,
INSWVESQTNGIIR [Peptide 608.02],,,,,,,"IC50 (DRB1*0101 (DR1); read-out: In IC50 Format DR1, Table VIII): 556 nM; IC50 (DRB1*0701 (DR7); read-out: In IC50 Format DR7, Table VIII): 14.7 nM; IC50 (DRB5*0101 (DR2w2a); read-out: In IC50 Format DR2w2β2, Table VIII): > 10000 nM; IC50 (DRB10404 (DR4w14); read-out: In IC50 Format DR4w14, Table VIII): 16700 nM; IC50 (DRB1*0401 (DR4w4); read-out: In IC50 Format DR4w4, Table VIII): 375 nM"
KSNTATSATQRLANSLVH [Peptide 735.01],313,1330,12500,,441,352,
LMAMGITDVFSSSANLSGI [Peptide 705.08],417,2500,403,,14.1,,
QPDVRPQPPSPREGP [Peptide 39.0280],,,,,,,"IC50 (DRB1*0101 (DR1); Table VIII, page 2, read-out: In IC50 Format DR1): 7140 nM"
YARFQFQTTLKAKT-NH2 [Peptide 717.46],4.5,3.7,4170,40,,2.6,
YARFQRQTTLKIAT [Peptide 716.01],2.9,,42.7,95.2,16.7,111,
YARFQSETTEKAKT-NH2 [Peptide 717.07],,,,5000,64.3,806,
YARFQSQTPLKAKT-NH2 [Peptide 717.37],2.5,8,,64.5,9,67.5,
YARFQSQTTLEAKT-NH2 [Peptide 717.22],7.9,29.4,2780,870,11.8,,
YARFQSQTTLKAET-NH2 [Peptide 717.26],35.7,,4170,,18,20,
YARYQSQTTLKAKT-NH2 [Peptide 717.42],7.8,14.3,,364,3.1,66.7,
